Measured values published in patent US20260265239A1, “CRYSTAL FORM OF 2,6-PIPERIDINEDIONE COMPOUND, AND PREPARATION METHOD THEREFOR AND USE THEREOF” (ZHANGZHOU PIEN TZE HUANG PHARMACEUTICAL CO., LTD., priority 2023, published 2026).
Structures can show the parent of a compound that is named as a salt.

Assays:
[1] = Pharmacokinetic evaluation in mice; assay type: in vivo, C57BL/6 or C57 male mice
Text: C57BL/6 or C57 male mice were selected as the test animals for this study. The LC/MS/MS method was employed to quantitatively determine the plasma drug concentrations at various time points after intravenous injection or intragastric administration of the test compound, aiming to evaluate the pharmacokinetic characteristics of the compound of the present disclosure in mice.
C57BL/6 or C57 mice (male, 20 to 30 g, 7 to 10 weeks old, Beijing Vital River).
A clear solution of the test compound was injected intravenously into the tail vein of C57BL/6 mice (fasted overnight) (vehicle: 10% DMSO/10% solutol/80% H2O), or administered intragastrically to C57 mice (fed). […] The mixture was thoroughly vortexed and mixed, and centrifuged at 6000 g for 3 minutes at 2 to 8° C. […] The mixture was thoroughly vortexed and mixed, and centrifuged at 6000 g for 3 minutes at 2 to 8° C. Plasma drug concentrations were determined by the LC-MS/MS method, and relevant pharmacokinetic parameters were calculated using Phoenix WinNonlin 8.2.0 pharmacokinetic software with non-compartmental model linear-log trapezoidal method.

SU-DHL-2 = assay: Anti-proliferative effect in lymphoma cell line SU-DHL-2 (CellTiter-Glo); assay type: cell-based, human
Experimental: Objective: This experiment was conducted to detect the inhibitory effect of the compound of formula (I) on cell proliferation in the lymphoma cell line SU-DHL-2.
The tumor cell lines were cultured under the above culture conditions in an incubator at 37° C. and 5% CO2. The cells were passaged periodically, and those in the logarithmic growth phase were harvested for seeding.
• (1) The cells were stained with trypan blue, and the viable cells were counted. • (2) The cell concentration was adjusted to an appropriate concentration.
• (3) 50 μL of cell suspension was added to each well of the culture plate as shown in the figure above. • (4) The culture plate was incubated overnight in an incubator at 37° C., 5% CO2, and 100% relative humidity.
The drug was administered with an Echo655 instrument. A dosing volume of 50 nL was used, with a final DMSO concentration of 0.1%. The culture plate was centrifuged at 1000 rpm for 1 min and incubated at 37° C., 5% CO2, and 100% relative humidity for 4 days. […]

[2] = Intragastric administration (10 mg/kg) (fed)

O=C1CCC(c2noc3ccc4c(NC(=O)CN5CCN(C[C@H]6CC[C@H](n7cc(NC(=O)c8coc(-c9ccnc(NCC%10CC%10)c9)n8)c(C(F)F)n7)CC6)CC5)cccc4c23)C(=O)N1 (some centres unmarked) [Hydrochloride of Compound of Formula (I)]
Area Under the Drug-Time Curve (0-inf) [1, 2]: 4.47 µM·h
Peak Concentration [1, 2]: 0.54 µM
Time to Peak Concentration [1, 2]: 1.00 h
Area Under the Drug-Time Curve (0-inf) ([1]; Intravenous Injection (2 mg/kg) (fasted)): 5.40 µM·h
inhibitory effect on cell proliferation (conclusion) (SU-DHL-2): excellent inhibitory effect
